# Test results: US11484529B2, “Desmethylanethole trithione derivatives for the treatment of diseases linked to mitochondrial reactive oxygen species (ROS) production” (OP2 Drugs, priority 2017, dated 2022)
# What was measured:
# [1] = tested on: pulmonary arterial smooth muscle cells (PASMC); test: PASMC proliferation (BrdU incorporation); assay type: cell-based; settings: AOL 10, 20, 60 or 100 μM, 24 hours
# Procedure: Detection of pulmonary arterial smooth muscle cells (PASMC) proliferation was assayed by using a colorimetric immunoassay kit (Roche Applied Science, Indianapolis, Ind., USA) based on the measurement of 5-bromo-2′-deoxy-uridine (BrdU) incorporation during DNA synthesis.
# Isolated PASMC were seeded in culture medium supplemented with 10% fetal calf serum (FCS) at a density of 5·10^3 cells/well/100 μL in a 96-well culture plate. The culture plate was placed in a humidified incubator at 37° C. under 5% CO2 in air. After 48 hours, cells were subjected to 48 hours of growth arrest in serum-free culture medium supplemented with 1% insulin-transferrin-selenium. At the end of this period, PASMC were incubated for 24 hours in culture medium containing either: • 0.2% FCS (control condition); • 0.2% FCS+10, 20, 60 or 100 μM AOL; • 0.2% FCS+100 μM 5HT (serotonin); • 0.2% FCS+100 μM 5HT+10, 20, 60 or 100 μM AOL; • 10% FCS; • 10% FCS+10, 20, 60 or 100 μM AOL.
# Each condition was tested in triplicate. 10 μL of BrdU (100 μM) was then added to the media and cells were incubated for an additional 2 hours at 37° C. […] Newly synthesized BrdU DNA was determined by measuring absorbance of the samples in an ELISA reader (Spectrostar/nano; BMG Labtech, Champigny-sur-Marne, France) at a wavelength of 380 nm with a reference wavelength of 490 nm.
# MPTP-treated mice = test: Sub-chronic MPTP mouse model of Parkinson's disease, TH-positive neurons in the substantia nigra; assay type: in vivo; settings: AOL 5 mg/kg i.p., 11 consecutive days; p<0.01
# Procedure: In this study, the potential neuroprotective effects of AOL were assessed by counting the number of tyrosine hydroxylase (TH)-positive neurons in the substantia nigra (SN) in the sub-chronic 1-methyl-4-phenyl-1,2,3,6-tetrahydropyridine (MPTP) mouse model of Parkinson's disease. Mice were treated with AOL (5 mg/kg; i.p.) or vehicle for 11 consecutive days. MPTP (20 mg/kg; i.p.) or saline was administered on treatment days 4-8. All mice were killed on day 12 following final administration of treatment.
# For vehicle conditions, the test item was dissolved in 0.5% DMSO/0.95% Tween 20 in saline while AOL was administered intraperitoneally (i.p.) at the dose of 5 mg/kg. […]
# Unbiased stereological analysis was used to estimate the number of TH-immunopositive (TH+) neurons (Mercator, Explora Nova, La Rochelle, France). The boundaries of the SN were determined by examining the size and shape of the different TH+ neuronal groups. The volume was calculated by using the formula: V=ΣS td; where ΣS is the sum of surface areas, t is the average section thickness and d is the number of slices between two consecutive sections measured. […] The following formula was used to estimate the number of TH+ neurons: N=V(SN) (ΣQ−/ΣV(dis)); where N is the estimation of cell number, V is the volume of the SN, ΣQ− is the number of cells counted in the dissectors, and ΣV(dis) is the total volume of all the dissectors. […]
# [2] = tested on: retina (outer nuclear layer); test: Progressive light-induced retinal degeneration; assay type: in vivo, rat; settings: 6 mg/kg/day, three times a day, 7 days
# Procedure: Rats bred under cyclic low-intensity lighting were transferred to cyclic high-intensity lighting for one week and divided into 3 groups (non-treated animals, vehicle-treated animals and AOL-treated animals). Treated animals received injections of vehicle or AOL at a dose of 6 mg/kg/day, three times a day for the 7 days of the transfer (30 minutes before light-ON; at […]). After one week, animals were transferred in the dark (D0).
# A control group (“untransferred”) was not transferred to cyclic high-intensity lighting but received the same treatment as described above: injections of vehicle or AOL three times a day for 7 days, followed by a transfer in the dark (D0).
# Animals were then sacrificed for histological analysis.
structure (smiles),measurement,setting,value
"COc1ccc(-c2cc(=S)ss2)cc1 [AOL, 5-(4-methoxyphenyl)-3H-1,2-dithiole-3-thione]",PASMC proliferation in presence of 0.2% FCS and 100 μM 5HT,[1],successfully inhibited the proliferation
same,PASMC proliferation induced by 10% FCS,[1],successfully inhibited the proliferation
same,increase of the number of TH+ cells in the SN compared to vehicle in MPTP-treated mice,MPTP-treated mice,44%
same,thickness of the outer nuclear layer (ONL),[2]; transferred to cyclic high-intensity lighting,significant increase of the thickness of the ONL
same,thickness of the outer nuclear layer (ONL),[2]; untransferred control group,no effect on ONL's thickness
